Assay results reported in patent publication US10597388B2, “Pyridazinone herbicides” (FMC CORPORATION, priority 2014, dated 2020).

Experiments:
Type in all cases: in vivo
[1] = tested on: oat, wild (wild oat, Avena fatua); experiment: Test C greenhouse herbicide test, postemergence
Outline: (§1)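 Greenhouse postemergence spray on plants 2–18 cm tall; response judged visually after 13–15 d relative to untreated controls using a 0 (none) to 100 (full control) scale.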

kochia (Kochia scoparia) = experiment: Test C greenhouse herbicide test, postemergence
Outline: as §1

[2] = tested on: foxtail, giant (giant foxtail, Setaria faberii); experiment: Test C greenhouse herbicide test, pre- and postemergence
Text: (§2) Seeds of plant species selected from blackgrass (Alopecurus myosuroides), ryegrass, Italian (Italian ryegrass, Lolium multiflorum), wheat (winter wheat, Triticum aestivum), galium (catchweed bedstraw, Galium aparine), corn (Zea mays), large crabgrass, large (large crabgrass, Digitaria sanguinalis), foxtail, giant (giant foxtail, Setaria faberii), johnsongrass (Sorghum halepense), lambsquarters (Chenopodium album), morningglory (Ipomoea coccinea), nutsedge, yellow (yellow nutsedge, Cyperus esculentus), pigweed (Amaranthus retroflexus), ragweed (common ragweed, Ambrosia elatior), soybean (Glycine max), barnyardgrass (Echinochloa crus-galli), oilseed rape (Brassica napus), waterhemp (common waterhemp, Amaranthus rudis), and velvetleaf (Abutilon theophrasti) were planted into a blend of loam soil and sand and treated preemergence with test chemicals formulated in a non-phytotoxic solvent mixture which included a surfactant.
(§3) At the same time, plants selected from these crop and weed species and also chickweed (common chickweed, Stellaria media), kochia (Kochia scoparia), and oat, wild (wild oat, Avena fatua), were planted in pots containing Redi-Earth® planting medium (Scotts Company, 14111 Scottslawn Road, Marysville, Ohio 43041) comprising spaghnum peat moss, vermiculite, wetting agent and starter nutrients and treated with postemergence applications of test chemicals formulated in the same manner. Plants ranged in height from 2 to 18 cm (1- to 4-leaf stage) for postemergence treatments. Treated plants and controls were maintained in a greenhouse for 13 to 15 d, after which time all species were compared to controls and visually evaluated. Plant response ratings, summarized in Table C, are based on a scale of 0 to 100 where 0 is no effect and 100 is complete control. A dash (-) response means no test result.

[3] = tested on: blackgrass (Alopecurus myosuroides); experiment: as above
Text: as §2, §3

[4] = tested on: velvetleaf (Abutilon theophrasti); experiment: as above
Text: as §2, §3

[5] = tested on: johnsongrass (Sorghum halepense); experiment: as above
Text: as §2, §3

corn (Zea mays) = experiment: as above
Text: as §2, §3

[6] = tested on: waterhemp (common waterhemp, Amaranthus rudis); experiment: as above
Text: as §2, §3

[7] = tested on: pigweed (Amaranthus retroflexus); experiment: as above
Text: as §2, §3

[8] = tested on: crabgrass, large (large crabgrass, Digitaria sanguinalis); experiment: as above
Text: as §2, §3

[9] = tested on: wheat (winter wheat, Triticum aestivum); experiment: as above
Text: as §2, §3

[10] = tested on: oilseed rape (Brassica napus); experiment: as above
Text: as §2, §3

[11] = tested on: lambsquarters (Chenopodium album); experiment: as above
Text: as §2, §3

[12] = tested on: nutsedge, yellow (yellow nutsedge, Cyperus esculentus); experiment: as above
Text: as §2, §3

[13] = tested on: morningglory (Ipomoea coccinea); experiment: as above
Text: as §2, §3

[14] = tested on: barnyardgrass (Echinochloa crus-galli); experiment: as above
Text: as §2, §3

[15] = Postemergence, 31 g ai/ha, 0 to 100 scale (0 no effect, 100 complete control)
[16] = Postemergence, 125 g ai/ha, scale 0 to 100, 0 is no effect, 100 is complete control
[17] = Postemergence, 250 g ai/ha, scale 0 to 100, 0 no effect, 100 complete control, 13 to 15 d
[18] = postemergence, 62 g ai/ha, scale 0 to 100, 0 no effect, 100 complete control

In the case of `Cc1ccc(-c2c(O)c(Br)nn(C)c2=O)c2ccccc12` [Compound 52], the “Oat, Wild plant response rating” value [1, 15] was 0, the “Plant response rating, Oat, Wild” value [1, 16] was 0 and the “Plant response rating, Oat, Wild” value [1, 17] was 0. For the same compound, the “Oat, Wild plant response rating” value [1, 18] was 0, the “Kochia plant response rating” value (kochia (Kochia scoparia); [15]) was 0 and the “Plant response rating, Kochia” value (kochia (Kochia scoparia); [16]) was 5. For the same compound, the “Plant response rating, Kochia” value (kochia (Kochia scoparia); [17]) was 70, the “Kochia plant response rating” value (kochia (Kochia scoparia); [18]) was 0 and the “Foxtail, Giant plant response rating” value [2, 15] was 0. For the same compound, the “Plant response rating, Foxtail, Giant” value [2, 16] was 10, the “Plant response rating, Foxtail, Giant” value [2, 17] was 35 and the “Foxtail, Giant plant response rating” value [2, 18] was 5. For the same compound, the “Blackgrass plant response rating” value [3, 15] was 0, the “Plant response rating, Blackgrass” value [3, 16] was 30 and the “Plant response rating, Blackgrass” value [3, 17] was 30. The “Blackgrass plant response rating” value [3, 18] was 10, the “Velvetleaf plant response rating” value [4, 15] was 5 and the “Plant response rating, Velvetleaf” value [4, 16] was 55. The “Plant response rating, Velvetleaf” value [4, 17] was 100, the “Velvetleaf plant response rating” value [4, 18] was 25 and the “Johnsongrass plant response rating” value [5, 15] was 5. The “Plant response rating, Johnsongrass” value [5, 16] was 10, the “Plant response rating, Johnsongrass” value [5, 17] was 15 and the “Johnsongrass plant response rating” value [5, 18] was 10. For the same compound, the “Corn plant response rating” value (corn (Zea mays); [15]) was 0, the “Plant response rating, Corn” value (corn (Zea mays); [16]) was 0 and the “Plant response rating, Corn” value (corn (Zea mays); [17]) was 0. The “Corn plant response rating” value (corn (Zea mays); [18]) was 0, the “Waterhemp plant response rating” value [6, 15] was 10 and the “Plant response rating, Waterhemp” value [6, 16] was 10. The “Plant response rating, Waterhemp” value [6, 17] was 55, the “Waterhemp plant response rating” value [6, 18] was 10 and the “Pigweed plant response rating” value [7, 15] was 30. The “Plant response rating, Pigweed” value [7, 16] was 10, the “Plant response rating, Pigweed” value [7, 17] was 55 and the “Pigweed plant response rating” value [7, 18] was 5. The “Crabgrass, Large plant response rating” value [8, 15] was 0, the “Plant response rating, Crabgrass, Large” value [8, 16] was 5 and the “Plant response rating, Crabgrass, Large” value [8, 17] was 10. The “Crabgrass, Large plant response rating” value [8, 18] was 0, the “Wheat plant response rating” value [9, 15] was 0 and the “Plant response rating, Wheat” value [9, 16] was 0. For the same compound, the “Plant response rating, Wheat” value [9, 17] was 0, the “Wheat plant response rating” value [9, 18] was 0 and the “Oilseed Rape plant response rating” value [10, 15] was 0. The “Plant response rating, Oilseed Rape” value [10, 16] was 0, the “Plant response rating, Oilseed Rape” value [10, 17] was 0 and the “Oilseed Rape plant response rating” value [10, 18] was 0. For the same compound, the “Lambsquarters plant response rating” value [11, 15] was 55, the “Plant response rating, Lambsquarters” value [11, 16] was 75 and the “Plant response rating, Lambsquarters” value [11, 17] was 98. For the same compound, the “Lambsquarters plant response rating” value [11, 18] was 60, the “Nutsedge, Yellow plant response rating” value [12, 15] was 60 and the “Plant response rating, Nutsedge, Yellow” value [12, 16] was 90. The “Plant response rating, Nutsedge, Yellow” value [12, 17] was 95, the “Nutsedge, Yellow plant response rating” value [12, 18] was 80 and the “Morningglory plant response rating” value [13, 15] was 98. For the same compound, the “Plant response rating, Morningglory” value [13, 16] was 100, the “Plant response rating, Morningglory” value [13, 17] was 100 and the “Morningglory plant response rating” value [13, 18] was 100. The “Barnyardgrass plant response rating” value [14, 15] was 5, the “Plant response rating, Barnyardgrass” value [14, 16] was 5 and the “Plant response rating, Barnyardgrass” value [14, 17] was 10. For the same compound, the “Barnyardgrass plant response rating” value [14, 18] was 5.
